The values below are quoted from earlier work in the CATMoS acute toxicity set (Mansouri et al. 2021).

“And” between values parts separate entries of the source, which are not always exact repeats. Equal entries are not always repeated.

The data set can be described thus: rat acute oral toxicity. The conditions noted are these: in vivo.
For `COC(=O)c1cccc(C(=O)OC)c1`, the LD50 is 4390 mg/kg. In the case of `O=C1c2ccccc2C(=O)c2c1cccc2S(=O)(=O)O`, the LD50 is 20000 mg/kg.

With `CO[Si](CCCN=C=O)(OC)OC`, the LD50 was 878 mg/kg. `CCC1=CSC(S)N1` (stereo not drawn): the LD50 was 35 mg/kg.

Regarding `NC(=O)C1c2ccccc2CCc2ccccc21`, the LD50 is 2400 mg/kg.

Turning to `CC(C)CCCCCCCCCCO`, the LD50 is 17000 mg/kg.

In the case of `CCCCCC(=O)NO`, the LD50 is 3200 mg/kg. With `CC(NC(C)(C)C)C(=O)c1cccc(Cl)c1` (stereo not drawn), the LD50 was 482 mg/kg and 600 mg/kg. As for `CC1CN(C2CCCCCCCCCCC2)CC(C)O1` (stereo not drawn), the LD50 is 2640 mg/kg and 2500 mg/kg. As for `COc1ccc2c3c1O[C@H]1[C@@H](OC(=O)c4cccnc4)C=C[C@H]4[C@@H](C2)N(C)CC[C@@]341`, the LD50 was 840 mg/kg. With `CC(C)(C)c1cc(C(=O)c2cccs2)cc(C(C)(C)C)c1O`, the LD50 is 1620 mg/kg.

For the molecule `CN1CCN(CC(=O)NN=Cc2ccc([N+](=O)[O-])o2)CC1`, the LD50 was 1350 mg/kg. `CN1C(=O)C2C=CC1c1ccccc12` (stereo not drawn): the LD50 is 806 mg/kg. In the case of `Nc1ccc2[nH]c3ccccc3c2c1`, the LD50 was 1520 mg/kg. On to `O=C(c1ccc2c(c1)C(=O)OC2=O)c1ccc2c(c1)C(=O)OC2=O`, for which the LD50 is 12800 mg/kg. Turning to `Cc1ccc(C=O)o1`, the LD50 is 2200 mg/kg. Take `CCOC(=O)C=Cc1ccc2c(c1)OCO2`: the LD50 was 948 mg/kg. Take `O=C(Nc1ccc(Cl)cc1)c1cc(Cl)cc(-c2ccc(Cl)cc2)c1O`: the median lethal dose (LD50) was 2810 mg/kg.

For the molecule `O=S(=O)(O)c1ccc2cc(Nc3cccc4c(O)c(S(=O)(=O)O)ccc34)ccc2c1O`, the LD50 was 11000 mg/kg.

`Cc1c(Cl)c(Cl)c(Cl)c(C(Cl)Cl)c1Cl`: the LD50 was 2920 mg/kg.

Take `FC(F)(F)c1cccc(CNC2=NCCS2)c1`: the LD50 is 50 mg/kg.

Take `O=C(NC1CCSC1=O)c1cccnc1` (stereo not drawn): the LD50 is 4500 mg/kg. Take `O=C(C=CC(=O)OCCCl)OCCCl`: the median lethal dose (LD50) was 71 mg/kg. As to `CCOC(=O)Cc1cccc2ccccc12`, the LD50 is 3580 mg/kg. Consider `C=CC(C)=O`, for which the median lethal dose (LD50) was 23.1 mg/kg.

On to `C[Si]1(C)OCCN(CCO)CCO1`, for which the 50% lethal dose (LD50) is 3400 mg/kg. On to `c1ccc(N2CCNCC2)cc1`, for which the 50% lethal dose (LD50) was 210 mg/kg.

For `O=C(O)c1cccc(O)c1O`, the LD50 was 1800 mg/kg. Regarding `COc1ccccc1-c1ccccc1`, the LD50 is 3600 mg/kg. As to `Nc1ccc(-c2ccc(N)c(Cl)c2)cc1Cl`, the LD50 is 3820 mg/kg. With `CCOP(=S)(OCC)SC1CCC2C=CCC1S2` (stereo not drawn), the 50% lethal dose (LD50) is 140 mg/kg. For `C=CCC#N`, the LD50 is 115 mg/kg.

With `O=C(NCC1CCCCN1)c1cc(OCC(F)(F)F)ccc1OCC(F)(F)F` (stereo not drawn), the LD50 is 1350 mg/kg. On to `C=C(C)C(=O)OCC(CCCC)CCCCCC` (stereo not drawn), for which the LD50 is 26000 mg/kg. For `C/N=N/Nc1ccc(Br)cc1`, the 50% lethal dose (LD50) is 467 mg/kg. Regarding `C/C(=N/Nc1nc(C)cc(C)n1)c1ccccc1C`, the LD50 was 525 mg/kg. With `CCOC(=O)Nc1ccc2c(c1)N(C(=O)CCN1CCOCC1)c1ccccc1S2`, the LD50 is 1000 mg/kg.

As for `c1ccc(Cc2ccccc2)cc1`, the LD50 is 2250 mg/kg. As to `C=C(C)C(=O)OCCCl`, the LD50 was 200 mg/kg. For the molecule `Clc1cc(Cl)cc(C2(CC(Cl)(Cl)Cl)CO2)c1` (stereo not drawn), the 50% lethal dose (LD50) was 1500 mg/kg.

Regarding `CC(C)N=C1SC(=NOC(=O)N(C)SC(Cl)(Cl)Cl)C(C)(C)S1`, the LD50 is 226 mg/kg. For the molecule `CNS(=O)(=O)OCC(=O)N1CCCCCC1`, the LD50 was 2040 mg/kg. Consider `CCCn1c2ccccc2c2cc(N)ccc21`, for which the LD50 was 423 mg/kg. As for `CCc1cc2c(cc1C=O)C(C)(C)CCC2(C)C`, the LD50 is 3200 mg/kg. On to `C[N+]1(CCF)[C@@H]2CC[C@H]1C[C@@H](OC(=O)C(O)(c1ccccc1)c1ccccc1)C2` (single isomer, unassigned), for which the LD50 is 740 mg/kg.

Turning to `CN=C(O)O/N=C1\COCCS1`, the LD50 was 37 mg/kg. `CC(Cl)(Cl)CCl`: the LD50 was 1140 mg/kg. With `CNC(=O)c1cc(OC)n(-c2cccc(Cl)c2)n1`, the LD50 was 1540 mg/kg.

Consider `CC(C)NCC(O)COc1ccccc1C1CCCCC1` (stereo not drawn), for which the median lethal dose (LD50) was 1850 mg/kg. For `O=C(O)CN(CCO)CCN(CC(=O)O)CC(=O)O`, the LD50 is 10000 mg/kg.

`Clc1nc(C(Cl)(Cl)Cl)c(Cl)c(Cl)c1Cl`: the LD50 is 1840 mg/kg. Take `O=C(CO)Nc1ccccc1`: the LD50 is 1700 mg/kg.

On to `CC(C)NCC(O)c1ccc2ccccc2c1` (stereo not drawn), for which the 50% lethal dose (LD50) is 900 mg/kg. On to `CSCCC(O)C(=O)O` (stereo not drawn), for which the LD50 is 3480 mg/kg. As to `CCOP(=S)(OCC)Oc1ccc(SC)c(C)c1`, the median lethal dose (LD50) was 14 mg/kg. On to `CO[SiH](OC)OC`, for which the LD50 is 9330 mg/kg.

Regarding `C(=CNc1ccccc1)C=Nc1ccccc1`, the 50% lethal dose (LD50) is 1130 mg/kg.

In the case of `CCCc1ccccc1O`, the LD50 was 500 mg/kg. Consider `COc1cc(C(=O)OC2CCC(N3CCCCC3)CC2)cc(OC)c1OC` (stereo not drawn), for which the LD50 was 650 mg/kg. For the molecule `NC1CCc2ccccc2C1` (stereo not drawn), the LD50 was 100 mg/kg.

Take `Nc1nc2cc(Cl)c(O)cc2o1`: the LD50 is 1070 mg/kg. As for `O=C1CCc2cc(CCCCN3CCN(c4ccccc4Cl)CC3)ccc2N1`, the LD50 was 500 mg/kg. In the case of `CCc1cc(=O)c2ccccc2o1`, the LD50 was 1400 mg/kg. For `Oc1cccc(Oc2ccccc2)c1`, the LD50 is 1210 mg/kg. With `Cc1ccc(C(=O)C(C)CN2CCCCC2)cc1` (stereo not drawn), the median lethal dose (LD50) is 1450 mg/kg.

Consider `CN1CCC(n2[nH]c(-c3ccccc3)c(Cc3ccccc3)c2=O)CC1`, for which the LD50 was 2700 mg/kg. For the molecule `C#CCN1C(=O)CN=C(c2ccccc2)c2cc(Cl)ccc21`, the LD50 is 5820 mg/kg. For `CN1CCCCC1C(c1ccccc1)c1cccc(O)c1` (stereo not drawn), the LD50 is 1 mg/kg. For `C[C@H](CS)C(=O)N1CCC[C@H]1C(=O)O`, the LD50 was 4240 mg/kg. Take `O=c1oc2cc(Cl)ccc2n1CCl`: the LD50 was 2350 mg/kg. Consider `COP(=S)(OC)SCc1nc(=O)o[nH]1`, for which the 50% lethal dose (LD50) is 10 mg/kg. In the case of `C=CCC1=C(C)C(OC(=O)C2C(C=C(C)C)C2(C)C)CC1=O` (stereo not drawn), the 50% lethal dose (LD50) was 685 mg/kg.

Regarding `BrC=CBr`, the median lethal dose (LD50) is 117 mg/kg and 62 mg/kg. In the case of `CCC(C)c1cc([N+](=O)[O-])cc([N+](=O)[O-])c1OC(=O)SC` (stereo not drawn), the LD50 is 200 mg/kg.

Take `O=C(Cl)C(Cl)(Cl)Cl`: the LD50 is 600 mg/kg. As for `Cc1cc(O)cc(C)c1Cl`, the LD50 is 3830 mg/kg.

On to `CCc1ncc(C)nc1C`, for which the LD50 is 456 mg/kg. For `O=C(OCC(COC(=O)c1ccccc1)(COC(=O)c1ccccc1)COC(=O)c1ccccc1)c1ccccc1`, the LD50 is 1160 mg/kg. On to `COc1ccccc1N1CCN(CCCNc2cc(=O)n(C)c(=O)n2C)CC1`, for which the LD50 is 520 mg/kg.

As to `CCOP(=S)(Oc1ccc([N+](=O)[O-])cc1)Oc1ccc([N+](=O)[O-])cc1`, the LD50 was 66.9 mg/kg. Consider `O=NN1CN2CN(C1)CN(N=O)C2`, for which the LD50 was 940 mg/kg.

Regarding `CCc1cnc(C)cn1`, the median lethal dose (LD50) is 900 mg/kg. On to `CCN(CC)CCNC(=O)c1cc([N+](=O)[O-])c(N(C)C)cc1OC`, for which the LD50 was 856 mg/kg. With `CC1=C2C(=O)O[C@@H](c3ccoc3)[C@]2(C)CCC1`, the LD50 was 274 mg/kg. With `O=C(O)C1=Cc2sc(Cn3ccnc3)cc2CC1`, the LD50 was 1880 mg/kg. Turning to `CC(C)=C[C@@H]1[C@@H](C(=O)OCc2coc(Cc3ccccc3)c2)C1(C)C`, the LD50 is 1240 mg/kg. With `O=S(=O)(O)c1cc(Cl)ccc1C=Cc1ccc(-n2nc3ccc4c(S(=O)(=O)O)cccc4c3n2)cc1S(=O)(=O)O`, the 50% lethal dose (LD50) is 19900 mg/kg.

With `CC(C)C(C(=O)OC(C#N)c1ccc(Oc2ccccc2)cc1)c1ccc(Cl)cc1` (stereo not drawn), the LD50 was 451 mg/kg. Turning to `O=C(O)Cc1ccc(-c2ccccc2)cc1`, the LD50 is 164 mg/kg. Turning to `COc1ccc2c(=O)c3ccccc3oc2c1CN1CCCCC1`, the LD50 is 183 mg/kg.

For `O=S1(=O)CCCO1`, the median lethal dose (LD50) was 100 mg/kg. As for `CCOCCc1ccc(OCCN=c2[nH]cnc(CC)c2Cl)c(C)c1C`, the LD50 was 115 mg/kg. Consider `CCC=C(C)CO`, for which the LD50 was 4920 mg/kg.

A word on the LD50: it is the dose expected to kill half of the subjects tested.
